Reference: patent US10323038B2, “Pyrazole compounds and methods of making and using same” (ABIDE THERAPEUTICS, INC., priority 2015, dated 2019)

Columns and labels:
MAGL = MAGL (Mus musculus (Mouse), UniProt O35678); assay: In vitro competitive activity-based protein profiling, MAGL (mouse); type: biochemical; details: for inhibition at 1 µM: read-out: MAGL % inh. 1 μM (mouse)
Procedure, shortened: (§1)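 Proteomes at 1.0 mg/mL protein (mouse brain membranes or cell lysates; human prefrontal cortex or cell membranes) preincubated with inhibitor 30 min at 37 °C. Then FP-Rh or HT-01 probe (50 μM stock) added for 30 min at 37 °C. MAGL and FAAH activity measured by SDS-PAGE band fluorescence.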

FAAH = FAAH (Mus musculus (Mouse), UniProt O08914); assay: In vitro competitive activity-based protein profiling, FAAH (mouse); type: biochemical; details: for inhibition at 1 µM: read-out: FAAH % inh. 1 μM (mouse)
Sequence of FAAH (O08914 whole entry): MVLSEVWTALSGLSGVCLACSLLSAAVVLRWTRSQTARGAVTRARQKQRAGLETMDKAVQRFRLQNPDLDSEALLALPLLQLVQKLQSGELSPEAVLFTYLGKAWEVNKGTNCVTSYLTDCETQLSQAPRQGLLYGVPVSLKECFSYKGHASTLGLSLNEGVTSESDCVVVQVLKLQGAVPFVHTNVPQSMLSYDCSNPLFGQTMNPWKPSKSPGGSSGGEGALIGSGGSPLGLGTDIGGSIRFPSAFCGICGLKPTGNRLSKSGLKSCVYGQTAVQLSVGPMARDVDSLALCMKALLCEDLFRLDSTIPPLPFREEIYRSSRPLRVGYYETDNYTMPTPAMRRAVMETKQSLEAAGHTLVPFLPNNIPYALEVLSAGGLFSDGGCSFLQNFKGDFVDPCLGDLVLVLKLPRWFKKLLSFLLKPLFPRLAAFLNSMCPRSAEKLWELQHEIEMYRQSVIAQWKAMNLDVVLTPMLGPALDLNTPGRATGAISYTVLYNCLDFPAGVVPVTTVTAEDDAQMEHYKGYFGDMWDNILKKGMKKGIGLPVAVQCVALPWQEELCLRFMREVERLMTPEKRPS
Procedure, shortened: as §1

Sequence of MAGL (O35678 whole entry): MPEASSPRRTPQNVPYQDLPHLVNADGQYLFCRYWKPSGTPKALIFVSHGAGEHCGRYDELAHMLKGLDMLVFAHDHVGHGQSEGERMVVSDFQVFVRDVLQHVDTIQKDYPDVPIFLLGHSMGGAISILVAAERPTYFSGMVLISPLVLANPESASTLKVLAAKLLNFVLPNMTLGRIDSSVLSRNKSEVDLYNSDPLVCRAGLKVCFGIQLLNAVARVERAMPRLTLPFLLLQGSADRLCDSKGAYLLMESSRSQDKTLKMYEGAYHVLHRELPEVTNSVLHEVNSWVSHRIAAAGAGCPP

Structure (SMILES)	inhibition at 1 µM (MAGL) [%]	inhibition at 1 µM (FAAH) [%]	IC50 (MAGL) [nM]	IC50 (FAAH) [nM]
CC(=O)N(C)c1cnn(C(=O)N2CCC3(CCN(Cc4cccc(N5CCCC5)c4)C3)C2)c1 (stereo not drawn) [Example 82, N-methyl-N-(1-(7-(3-(pyrrolidin-1-yl)benzyl)-2,7-diazaspiro[4.4]nonane-2-carbonyl)-1H-pyrazol-4-yl)acetamide]	25 to 50	≥ 75		
CC(=O)N(C)c1cnn(C(=O)N2CC3(CCN(Cc4cccc(C)c4)CC3)C2)c1 [Example 83, N-methyl-N-(1-(7-(3-methylbenzyl)-2,7-diazaspiro[3.5]nonane-2-carbonyl)-1H-pyrazol-4-yl)acetamide]	25 to 50	25 to 50		
CC(=O)N(C)c1cnn(C(=O)N2CC3(CCN(Cc4ccc(Cl)cc4)CC3)C2)c1 [Example 84, N-(1-(7-(4-chlorobenzyl)-2,7-diazaspiro[3.5]nonane-2-carbonyl)-1H-pyrazol-4-yl)-N-methylacetamide]	50 to 75	≥ 75		
CC(=O)N(C)c1cnn(C(=O)N2CC3(CCN(Cc4cccc(Cl)c4)CC3)C2)c1 [Example 85, N-(1-(7-(3-chlorobenzyl)-2,7-diazaspiro[3.5]nonane-2-carbonyl)-1H-pyrazol-4-yl)-N-methylacetamide]	50 to 75	≥ 75		
CC(=O)N(C)c1cnn(C(=O)N2CC3(CCN(Cc4ccccc4Cl)CC3)C2)c1 [Example 86, N-(1-(7-(2-chlorobenzyl)-2,7-diazaspiro[3.5]nonane-2-carbonyl)-1H-pyrazol-4-yl)-N-methylacetamide]	50 to 75	≥ 75		
CC(=O)N(C)c1cnn(C(=O)N2CC3(CCN(Cc4ccc(C)cc4)CC3)C2)c1 [Example 87, N-methyl-N-(1-(7-(4-methylbenzyl)-2,7-diazaspiro[3.5]nonane-2-carbonyl)-1H-pyrazol-4-yl)acetamide]	50 to 75	25 to 50		
CC(=O)N(C)c1cnn(C(=O)N2CC3(CCN(Cc4cccc(C(F)(F)F)c4)CC3)C2)c1 [Example 88, N-methyl-N-(1-(7-(3-(trifluoromethyl)benzyl)-2,7-diazaspiro[3.5]nonane-2-carbonyl)-1H-pyrazol-4-yl)acetamide]	50 to 75	≥ 75		
CC(=O)N(C)c1cnn(C(=O)N2CC3(CCN(Cc4ccccc4C)CC3)C2)c1 [Example 89, N-methyl-N-(1-(7-(2-methylbenzyl)-2,7-diazaspiro[3.5]nonane-2-carbonyl)-1H-pyrazol-4-yl)acetamide]	25 to 50	25 to 50		
CC(=O)N(C)c1cnn(C(=O)N2CC3CN(Cc4ccc(C)cc4)CC3C2)c1 (stereo not drawn) [Example 91, N-methyl-N-(1-(5-(4-methylbenzyl)octahydropyrrolo[3,4-c]pyrrole-2-carbonyl)-1H-pyrazol-4-yl)acetamide]	50 to 75	≥ 75	100 to 1000	100 to 1000
CC(=O)N(C)c1cnn(C(=O)N2CC3CN(Cc4cccc(C)c4)CC3C2)c1 (stereo not drawn) [Example 92, N-methyl-N-(1-(5-(3-methylbenzyl)octahydropyrrolo[3,4-c]pyrrole-2-carbonyl)-1H-pyrazol-4-yl)acetamide]	≥ 75	≥ 75	100 to 1000	≤ 100
CC(=O)N(C)c1cnn(C(=O)N2CC3CN(Cc4ccc(N5CCCC5)cc4C(F)(F)F)CC3C2)c1 (stereo not drawn) [Example 93, N-methyl-N-(1-(5-(4-(pyrrolidin-1-yl)-2-(trifluoromethyl)benzyl)octahydropyrrolo[3,4-c]pyrrole-2-carbonyl)-1H-pyrazol-4-yl)acetamide]	≥ 75	≥ 75	≤ 100	≤ 100
CC(=O)N(C)c1cnn(C(=O)N2CC3CN(Cc4ccccc4C)CC3C2)c1 (stereo not drawn) [Example 94, N-methyl-N-(1-(5-(2-methylbenzyl)octahydropyrrolo[3,4-c]pyrrole-2-carbonyl)-1H-pyrazol-4-yl)acetamide]	≥ 75	≥ 75	100 to 1000	≤ 100
CC(=O)N(C)c1cnn(C(=O)N2CC3CN(Cc4ccc(N5CCOCC5)c(Cl)c4)CC3C2)c1 (stereo not drawn) [Example 95, N-(1-(5-(3-chloro-4-morpholinobenzyl)octahydropyrrolo[3,4-c]pyrrole-2-carbonyl)-1H-pyrazol-4-yl)-N-methylacetamide]	≥ 75	≥ 75		
CC(=O)N(C)c1cnn(C(=O)N2CC3CN(Cc4ccccc4C(F)(F)F)CC3C2)c1 (stereo not drawn) [Example 96, N-methyl-N-(1-(5-(2-(trifluoromethyl)benzyl)octahydropyrrolo[3,4-c]pyrrole-2-carbonyl)-1H-pyrazol-4-yl)acetamide]	≥ 75	≥ 75	≤ 100	≤ 100
CC(=O)N(C)c1cnn(C(=O)N2CC3CN(Cc4ccc(N5CCCC5)c(C(F)(F)F)c4)CC3C2)c1 (stereo not drawn) [Example 97, N-methyl-N-(1-(5-(4-(pyrrolidin-1-yl)-3-(trifluoromethyl)benzyl)octahydropyrrolo[3,4-c]pyrrole-2-carbonyl)-1H-pyrazol-4-yl)acetamide]	≥ 75	≥ 75		
CC(=O)N(C)c1cnn(C(=O)N2CC3CN(Cc4ccc(Cl)c(C(F)(F)F)c4)CC3C2)c1 (stereo not drawn) [Example 98, N-(1-(5-(4-chloro-3-(trifluoromethyl)benzyl)octahydropyrrolo[3,4-c]pyrrole-2-carbonyl)-1H-pyrazol-4-yl)-N-methylacetamide]	≥ 75	≥ 75	≤ 100	≤ 100
CC(=O)N(C)c1cnn(C(=O)N2CC3CN(Cc4ccc(N5CCOCC5)c(C(F)(F)F)c4)CC3C2)c1 (stereo not drawn) [Example 99, N-methyl-N-(1-(5-(4-morpholino-3-(trifluoromethyl)benzyl)octahydropyrrolo[3,4-c]pyrrole-2-carbonyl)-1H-pyrazol-4-yl)acetamide]	≥ 75	≥ 75		
CC(=O)N(C)c1cnn(C(=O)N2CC3CN(Cc4ccc(F)c(N5CCCC5)c4)CC3C2)c1 (stereo not drawn) [Example 100, N-(1-(5-(4-fluoro-3-(pyrrolidin-1-yl)benzyl)octahydropyrrolo[3,4-c]pyrrole-2-carbonyl)-1H-pyrazol-4-yl)-N-methylacetamide]	≥ 75	≥ 75	≤ 100	≤ 100
CC(=O)N(C)c1cnn(C(=O)N2CC3CN(Cc4ccc(N5CC6CCC(C5)O6)cc4C(F)(F)F)CC3C2)c1 (stereo not drawn) [Example 101, N-(1-(5-(4-(8-oxa-3-azabicyclo[3.2.1]octan-3-yl)-2-(trifluoromethyl)benzyl)octahydropyrrolo[3,4-c]pyrrole-2-carbonyl)-1H-pyrazol-4-yl)-N-methylacetamide]	≥ 75	≥ 75		
CC(=O)N(C)c1cnn(C(=O)N2CC3CN(Cc4ccc(N5C6CCC5COC6)cc4C(F)(F)F)CC3C2)c1 (stereo not drawn) [Example 102, N-(1-(5-(4-(3-oxa-8-azabicyclo[3.2.1]octan-8-yl)-2-(trifluoromethyl)benzyl)octahydropyrrolo[3,4-c]pyrrole-2-carbonyl)-1H-pyrazol-4-yl)-N-methylacetamide]	≥ 75	≥ 75		
